Measurements taken from patent publication US20120016011A1, “RNA Interference Mediated Inhibition of Connective Tissue Growth Factor (CTGF) Gene Expression Using Short Interfering Nucleic Acid (siNA)” (Merck Sharp & Dohme Corp., priority 2009, published 2012).
[invAb] = inverted abasic unit; m = 2'-O-methyl; r = 2'-OH (RNA); f = 2'-fluoro

Tests used:
CTGF mRNA [1] = test: CTGF mRNA knockdown (Taqman RT-PCR) after siNA transfection of human NHLF cells; type: cell-based; details: 10 nM siNA, 24 hrs, average of 3 experiments, vs non-targeting control
Experimental: NHLF (Normal human lung fibroblasts; Lonza cat# CC-2512): Cells were cultured at 37° C. in the presence of 5% CO2 and grown in Fibroblast Basal Medium (Lonza cat# CC-3132) supplemented with 2% FBS and growth factors (provided with the kit) and 100 μg/mL of streptomycin and 100 U/mL penicillin.
(§1) Cells were plated in all wells of a tissue-culture treated, 96-well plate at a final count of 5000 cells/well in […], of the appropriate culture media. The cells were cultured for 24 hours after plating at 37° C. in the presence of 5% CO2.
(§2) After 24 hours, complexes containing siNA and RNAiMax were created as follows: A solution of RNAiMax diluted 33-fold in OPTI-MEM was prepared. In parallel, solutions of the siNAs for testing were prepared to a final concentration of 120 nM in OPTI-MEM. After incubation of RNAiMax/OPTI-MEM solution at room temperature for 5 min, an equal volume of the siNA solution and the RNAiMax solution were added together for each of the siNAs.
(§3) This solution was incubated at room temperature for 20 minutes. After incubation, 20 uL of the solution was added to each of the relevant wells. The final concentration of siNA in each well was 10 nM and the final volume of RNAiMax in each well was 0.3 ul.
(§4) The time of incubation with the RNAiMax-siNA complexes was 24 hours and there was no change in media between transfection and harvesting, unless otherwise indicated.
(§5) RNA was extracted from a 96-well plate using the TaqMan® Gene Expression Cells-to-CT™ Kit (Cat# 4399002) with a modified protocol. Briefly, a 60 uL (1 plate) or 110 uL (2 plates) of the Lysis Solution with DNase I was dispensed into each well of the Lysis Buffer Plate (twin.tec full skirt plate). The lysis buffer and stop plates were stored at 4° C. until the cells were washed.
(§6) The plate was spun at 1100 rpm for 5 minutes. The culture medium was aspirated and discarded from the wells of the culture plate. The lysis was performed automatically using a BioMek FX instrument and method. After the Biomek method was completed, the lysis plate was incubated for 2 min. at room temperature. The lysis plate can be stored for 2 hours at 4° C., or at −20° C. or −80° C. for two months.
(§7) Each well of the reverse transcription plate required 10 uL of 2× reverse transcriptase Buffer, 1 uL of 20× reverse transcription enzyme and 2 uL of nuclease-free water. The reverse transcription master mix was prepared by mixing 2× reverse transcription buffer, 20× reverse transcription enzyme mix, and nuclease-free water. 13 uL of the reverse transcription master mix was dispensed into each well of the reverse transcription plate (semi-skirted). A separate reverse transcription plate was prepared for each cell plate. The plate was loaded onto a Biomek NX or Biomek FX Dual -96 and the Biomek method was run. The program is programmed to automatically added 7 uL of lysate from the cell lysis procedure described above into each well of the reverse transcription plate. The plate is sealed and spun on a centrifuge (1000 rpm for 30 seconds) to settle the contents to the bottom of the reverse transcription plate. The plate is placed in a thermocycler at 37° C. for 60 min, 95° C. for 5 min, and 4° C. until the plate is removed from the thermocycler. Upon removal, if not used immediately, the plate was frozen at −20° C.
(§8) A series of probes and primers were used to detect the various mRNA transcripts of the genes of β-Actin (human cell line only), and of CTGF and GAPDH in mouse and human cell lines. All Taqman probes and primers for the experiments here-in described were supplied as pre-validated sets by Applied Biosystems, Inc. (see Table 3).
The assays were performed on an ABI 7900 instrument, according to the manufacturer's instructions. A TaqMan Gene Expression Master Mix (provided in the Cells-to-CT™, Applied Biosystems, Cat # 4399002) was used. The PCR reactions were carried out at 50° C. for 2 min, 95° C. for 20 min followed by 40 cycles at 95° C. for 15 secs and 60° C. for 1 min. […]

CTGF mRNA [2] = test: CTGF mRNA knockdown (Taqman RT-PCR) after siNA transfection of mouse NIH 3T3 cells; type: cell-based; details: mouse NIH3T3 cells, 10 nM siNA, 24 hrs, average of 3 experiments, vs non-targeting control
Experimental: NIH 3T3 (mouse; ATCC cat# CRL-1658): Cells were cultured at 37° C. in the presence of 5% CO2 and grown in Dulbecco's modified Eagle's medium (DMEM) with 4 mM L-glutamine adjusted to contain 1.5 g/L sodium bicarbonate and 4.5 g/L glucose and supplemented with fetal bovine serum at a final concentration of 10%, 100 μg/mL of streptomycin, and 100 U/mL penicillin.
as §1, §2, §3, §4, §5, §6, §7, §8
The assays were performed on an ABI 7900 instrument, according to the manufacturer's instructions. A TaqMan Gene Expression Master Mix (provided in the Cells-to-CT™, Applied Biosystems, Cat # 4399002) was used. […]

| Substance | % KD Human (CTGF mRNA [1]) | % KD Mouse (CTGF mRNA [2]) |
| --- | --- | --- |
| 48056-DC: siNA duplex; sense SEQ ID NO: 77 B cuGuGccuGccAuuAcAAc TTB; antisense SEQ ID NO: 78 GUUGuAAuGGcAGGcAcAGUU (sense CUGUGCCUGCCAUUACAACTT; antisense GUUGUAAUGGCAGGCACAGUU; sense: DNA at AGT, 2'-fluoro at CU, [invAb] at 5' end, 3' end, backbone not given here; antisense: sugars from the 5' end rrrmfmmfmmfmmmfmfmmmm, backbone not given here) | 6 ± 7% | 20 ± 6% |
| 48057-DC: siNA duplex; sense SEQ ID NO: 79 B cuAuuuGAAGuGuAAuuGA TTB; antisense SEQ ID NO: 80 UCAAuuAcAcuucAAAuAGUU (sense CUAUUUGAAGUGUAAUUGATT; antisense UCAAUUACACUUCAAAUAGUU; sense: DNA at AGT, 2'-fluoro at CU, [invAb] at 5' end, 3' end, backbone not given here; antisense: sugars from the 5' end rrrmffmfmffffmmmfmmmm, backbone not given here) | 80 ± 5% | 26 ± 5% |
| 48058-DC: siNA duplex; sense SEQ ID NO: 81 B cAGuGGAAcuAcAuuAGuA TTB; antisense SEQ ID NO: 82 UACuAAuGuAGuuccAcuGUU (sense CAGUGGAACUACAUUAGUATT; antisense UACUAAUGUAGUUCCACUGUU; sense: DNA at AGT, 2'-fluoro at CU, [invAb] at 5' end, 3' end, backbone not given here; antisense: sugars from the 5' end rrrfmmfmfrmffffmffmmm, backbone not given here) | 79 ± 3% | 17 ± 3% |
| 48059-DC: siNA duplex; sense SEQ ID NO: 83 B AcGAAcucAuuAGAcuAuA TTB; antisense SEQ ID NO: 84 UAUAGucuAAuGAGuucGuUU (sense ACGAACUCAUUAGACUAUATT; antisense UAUAGUCUAAUGAGUUCGUUU; sense: DNA at AGT, 2'-fluoro at CU, [invAb] at 5' end, 3' end, backbone not given here; antisense: sugars from the 5' end rrrmmfffmmfmmmfffmfmm, backbone not given here) | 25 ± 9% | 80 ± 4% |
| 48060-DC: siNA duplex; sense SEQ ID NO: 85 B ucuGucAAccucAGAcAcu TTB; antisense SEQ ID NO: 86 AGUGucuGAGGuuGAcAGAUU (sense UCUGUCAACCUCAGACACUTT; antisense AGUGUCUGAGGUUGACAGAUU; sense: DNA at AGT, 2'-fluoro at CU, [invAb] at 5' end, 3' end, backbone not given here; antisense: sugars from the 5' end rrrmfffmmmmffmmfmmmmm, backbone not given here) | 64 ± 8% | 74 ± 3% |
| 48061-DC: siNA duplex; sense SEQ ID NO: 87 B AcucAuuAGAcuAuAAcuu TTB; antisense SEQ ID NO: 88 AAGuuAuAGucuAAuGAGuUU (sense ACUCAUUAGACUAUAACUUTT; antisense AAGUUAUAGUCUAAUGAGUUU; sense: DNA at AGT, 2'-fluoro at CU, [invAb] at 5' end, 3' end, backbone not given here; antisense: sugars from the 5' end rrrffmfmmfffmmfmmmfmm, backbone not given here) | 30 ± 12% | 73 ± 5% |
| 48062-DC: siNA duplex; sense SEQ ID NO: 89 B ccAcucuGccAGuGGAGuu TTB; antisense SEQ ID NO: 90 AACuccAcuGGcAGAGuGGUU (sense CCACUCUGCCAGUGGAGUUTT; antisense AACUCCACUGGCAGAGUGGUU; sense: DNA at AGT, 2'-fluoro at CU, [invAb] at 5' end, 3' end, backbone not given here; antisense: sugars from the 5' end rrrfffmffmmfmmmmfmmmm, backbone not given here) | −1 ± 18% | 12 ± 2% |
| 48063-DC: siNA duplex; sense SEQ ID NO: 91 B AcAcGAAcucAuuAGAcuA TTB; antisense SEQ ID NO: 92 UAGucuAAuGAGuucGuGuUU (sense ACACGAACUCAUUAGACUATT; antisense UAGUCUAAUGAGUUCGUGUUU; sense: DNA at AGT, 2'-fluoro at CU, [invAb] at 5' end, 3' end, backbone not given here; antisense: sugars from the 5' end rrrfffmmfmmmfffmfmfmm, backbone not given here) | 59 ± 3% | 84 ± 2% |
| 48064-DC: siNA duplex; sense SEQ ID NO: 93 B AGuGGAGAuGccAGGAGAA TTB; antisense SEQ ID NO: 94 UUCuccuGGcAucuccAcuUU (sense AGUGGAGAUGCCAGGAGAATT; antisense UUCUCCUGGCAUCUCCACUUU; sense: DNA at AGT, 2'-fluoro at CU, [invAb] at 5' end, 3' end, backbone not given here; antisense: sugars from the 5' end rrrffffmmfmfffffmffmm, backbone not given here) | 6 ± 6% | 58 ± 3% |
| 48065-DC: siNA duplex; sense SEQ ID NO: 95 B GccuGucAAGuuuGAGcuu TTB; antisense SEQ ID NO: 96 AAGcucAAAcuuGAcAGGcUU (sense GCCUGUCAAGUUUGAGCUUTT; antisense AAGCUCAAACUUGACAGGCUU; sense: DNA at AGT, 2'-fluoro at CU, [invAb] at 5' end, 3' end, backbone not given here; antisense: sugars from the 5' end rrrfffmmmfffmmfmmmfmm, backbone not given here) | 19 ± 6% | 46 ± 7% |
| 48066-DC: siNA duplex; sense SEQ ID NO: 97 B AcAGuuuAcAcuuGAcAGu TTB; antisense SEQ ID NO: 98 ACUGucAAGuGuAAAcuGuUU (sense ACAGUUUACACUUGACAGUTT; antisense ACUGUCAAGUGUAAACUGUUU; sense: DNA at AGT, 2'-fluoro at CU, [invAb] at 5' end, 3' end, backbone not given here; antisense: sugars from the 5' end rrrmffmmmfmfmmmffmfmm, backbone not given here) | 17 ± 7% | 80 ± 1% |
